Common to all, as to assay: Kinase selectivity, DiscoverX scanMAX Kinase assay panel (% control)
What all share (assay type): binding

For experiment [1], the target named is T1, kinases of the scanMAX Kinase assay panel (Homo sapiens, UniProt Q9UQ88).
T1 construct: purchased DiscoverX Co. (contract measurement) scanMAX Kinase assay panel
T1 sequence (Q9UQ88 1-783): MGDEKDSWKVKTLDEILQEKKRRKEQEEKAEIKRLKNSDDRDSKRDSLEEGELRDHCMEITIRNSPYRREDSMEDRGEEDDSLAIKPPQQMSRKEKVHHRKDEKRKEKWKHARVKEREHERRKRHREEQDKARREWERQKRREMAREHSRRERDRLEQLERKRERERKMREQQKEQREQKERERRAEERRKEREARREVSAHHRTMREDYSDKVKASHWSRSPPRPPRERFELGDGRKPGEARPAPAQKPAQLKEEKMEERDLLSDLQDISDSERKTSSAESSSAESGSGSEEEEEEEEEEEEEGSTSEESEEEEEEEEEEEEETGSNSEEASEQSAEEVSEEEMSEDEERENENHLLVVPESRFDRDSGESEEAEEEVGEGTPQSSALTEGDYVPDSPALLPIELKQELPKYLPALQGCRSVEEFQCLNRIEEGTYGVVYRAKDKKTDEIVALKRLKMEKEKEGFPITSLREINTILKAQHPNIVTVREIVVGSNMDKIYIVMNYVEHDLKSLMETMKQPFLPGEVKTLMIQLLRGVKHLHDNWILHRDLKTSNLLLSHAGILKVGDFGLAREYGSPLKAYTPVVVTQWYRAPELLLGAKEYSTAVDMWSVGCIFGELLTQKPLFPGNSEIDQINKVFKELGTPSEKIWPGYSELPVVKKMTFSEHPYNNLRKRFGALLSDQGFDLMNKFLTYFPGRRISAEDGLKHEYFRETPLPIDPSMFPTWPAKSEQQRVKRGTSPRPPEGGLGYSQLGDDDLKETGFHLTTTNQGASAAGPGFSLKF
To be noted: CDC2L2; 1 uM. The method, boiled down: (§1)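 Percent of control computed as (compound − positive control)/(negative control − positive control) × 100, DMSO defining 100% and positive control 0%. Each panel kinase exposed to 1 uM compound; values under 35% taken to mean the compound acts on that kinase.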

Experiment [2] addresses T2, kinases of the scanMAX Kinase assay panel (Homo sapiens, UniProt Q12866).
T2 construct: purchased DiscoverX Co. (contract measurement) scanMAX Kinase assay panel
T2 sequence (Q12866 21-999): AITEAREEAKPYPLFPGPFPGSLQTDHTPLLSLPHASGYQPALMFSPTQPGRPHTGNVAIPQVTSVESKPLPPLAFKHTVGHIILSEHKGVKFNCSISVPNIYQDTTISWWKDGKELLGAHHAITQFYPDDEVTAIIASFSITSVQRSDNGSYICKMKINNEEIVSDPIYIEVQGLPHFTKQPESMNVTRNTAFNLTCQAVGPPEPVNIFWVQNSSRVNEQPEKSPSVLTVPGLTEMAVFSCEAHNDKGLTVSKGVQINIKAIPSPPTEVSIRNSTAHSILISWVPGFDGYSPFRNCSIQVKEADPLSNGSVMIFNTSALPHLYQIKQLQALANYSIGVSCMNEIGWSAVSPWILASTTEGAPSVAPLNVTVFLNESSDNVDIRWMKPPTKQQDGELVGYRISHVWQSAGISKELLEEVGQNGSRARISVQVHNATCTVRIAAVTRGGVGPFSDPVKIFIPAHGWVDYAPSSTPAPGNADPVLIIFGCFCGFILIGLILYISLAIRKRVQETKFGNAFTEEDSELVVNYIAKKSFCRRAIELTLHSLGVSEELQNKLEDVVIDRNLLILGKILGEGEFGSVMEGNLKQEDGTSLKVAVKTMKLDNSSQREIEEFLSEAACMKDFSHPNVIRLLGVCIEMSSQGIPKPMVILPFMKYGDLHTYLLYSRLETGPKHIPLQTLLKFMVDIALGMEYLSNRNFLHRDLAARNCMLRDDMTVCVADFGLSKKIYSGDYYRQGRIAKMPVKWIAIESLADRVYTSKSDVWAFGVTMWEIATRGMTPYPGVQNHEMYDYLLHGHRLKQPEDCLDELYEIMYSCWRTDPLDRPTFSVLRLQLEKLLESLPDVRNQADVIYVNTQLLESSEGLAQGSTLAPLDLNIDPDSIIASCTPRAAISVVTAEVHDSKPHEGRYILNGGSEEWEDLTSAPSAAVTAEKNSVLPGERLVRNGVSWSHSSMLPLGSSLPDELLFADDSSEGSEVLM
As to conditions: MERTK; 1 uM. An outline of the steps:
as §1

The target of experiment [3] is T3, kinases of the scanMAX Kinase assay panel (Homo sapiens, UniProt Q8NEB9).
T3 construct: purchased DiscoverX Co. (contract measurement) scanMAX Kinase assay panel
T3 sequence (Q8NEB9 whole entry): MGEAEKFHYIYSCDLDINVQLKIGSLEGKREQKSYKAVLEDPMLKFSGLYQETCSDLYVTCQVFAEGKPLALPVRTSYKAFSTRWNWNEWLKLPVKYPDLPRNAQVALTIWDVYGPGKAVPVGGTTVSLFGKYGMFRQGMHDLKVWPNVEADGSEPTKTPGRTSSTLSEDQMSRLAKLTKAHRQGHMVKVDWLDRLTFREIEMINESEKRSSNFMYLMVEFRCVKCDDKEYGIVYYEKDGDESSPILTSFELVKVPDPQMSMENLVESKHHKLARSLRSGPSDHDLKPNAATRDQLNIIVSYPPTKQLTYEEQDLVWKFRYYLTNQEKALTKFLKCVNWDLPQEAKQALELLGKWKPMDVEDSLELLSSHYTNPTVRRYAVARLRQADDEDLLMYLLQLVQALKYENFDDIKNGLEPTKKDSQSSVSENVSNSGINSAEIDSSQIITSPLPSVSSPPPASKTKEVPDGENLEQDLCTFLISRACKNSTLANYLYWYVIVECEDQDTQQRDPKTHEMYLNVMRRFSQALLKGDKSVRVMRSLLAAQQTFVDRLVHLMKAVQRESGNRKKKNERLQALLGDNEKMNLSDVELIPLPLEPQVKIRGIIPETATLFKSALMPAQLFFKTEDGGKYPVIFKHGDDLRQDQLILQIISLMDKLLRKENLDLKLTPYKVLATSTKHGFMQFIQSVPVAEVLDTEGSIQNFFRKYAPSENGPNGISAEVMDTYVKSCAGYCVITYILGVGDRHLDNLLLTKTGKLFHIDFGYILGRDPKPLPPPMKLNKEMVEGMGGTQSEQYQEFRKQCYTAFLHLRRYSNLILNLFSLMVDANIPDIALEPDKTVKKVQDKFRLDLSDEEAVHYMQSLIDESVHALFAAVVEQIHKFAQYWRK
To be noted: kinase VPS34; 1 uM in DMSO. An outline of the steps: as §1

Experiment [4] addresses T4, kinases of the scanMAX Kinase assay panel (Homo sapiens, UniProt Q13546).
T4 construct: purchased DiscoverX Co. (contract measurement) scanMAX Kinase assay panel
T4 sequence (Q13546 1-671): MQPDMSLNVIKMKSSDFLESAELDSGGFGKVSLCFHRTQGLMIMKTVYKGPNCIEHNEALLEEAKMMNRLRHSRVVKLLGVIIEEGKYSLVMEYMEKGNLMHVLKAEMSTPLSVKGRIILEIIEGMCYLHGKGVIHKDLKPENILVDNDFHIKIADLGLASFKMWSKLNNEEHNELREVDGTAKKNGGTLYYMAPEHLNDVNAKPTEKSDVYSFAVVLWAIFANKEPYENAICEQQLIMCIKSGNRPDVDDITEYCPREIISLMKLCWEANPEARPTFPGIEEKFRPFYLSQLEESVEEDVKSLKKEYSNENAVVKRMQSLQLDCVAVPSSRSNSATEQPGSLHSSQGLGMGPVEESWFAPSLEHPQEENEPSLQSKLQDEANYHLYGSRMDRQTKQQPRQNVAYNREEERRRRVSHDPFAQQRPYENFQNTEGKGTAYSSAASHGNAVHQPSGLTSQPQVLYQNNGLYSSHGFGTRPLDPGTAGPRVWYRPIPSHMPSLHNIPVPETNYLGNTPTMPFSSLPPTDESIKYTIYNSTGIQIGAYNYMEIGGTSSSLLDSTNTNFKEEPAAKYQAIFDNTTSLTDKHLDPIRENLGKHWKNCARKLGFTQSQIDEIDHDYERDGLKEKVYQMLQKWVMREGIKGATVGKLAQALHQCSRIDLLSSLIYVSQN
As to conditions: kinase RIPK1; 1 uM in DMSO. An outline of the steps: as §1

Experiment [5] deals with T5, kinases of the scanMAX Kinase assay panel (Homo sapiens, UniProt P42336).
T5 construct: purchased DiscoverX Co. (contract measurement) scanMAX Kinase assay panel
T5 sequence (P42336 whole entry): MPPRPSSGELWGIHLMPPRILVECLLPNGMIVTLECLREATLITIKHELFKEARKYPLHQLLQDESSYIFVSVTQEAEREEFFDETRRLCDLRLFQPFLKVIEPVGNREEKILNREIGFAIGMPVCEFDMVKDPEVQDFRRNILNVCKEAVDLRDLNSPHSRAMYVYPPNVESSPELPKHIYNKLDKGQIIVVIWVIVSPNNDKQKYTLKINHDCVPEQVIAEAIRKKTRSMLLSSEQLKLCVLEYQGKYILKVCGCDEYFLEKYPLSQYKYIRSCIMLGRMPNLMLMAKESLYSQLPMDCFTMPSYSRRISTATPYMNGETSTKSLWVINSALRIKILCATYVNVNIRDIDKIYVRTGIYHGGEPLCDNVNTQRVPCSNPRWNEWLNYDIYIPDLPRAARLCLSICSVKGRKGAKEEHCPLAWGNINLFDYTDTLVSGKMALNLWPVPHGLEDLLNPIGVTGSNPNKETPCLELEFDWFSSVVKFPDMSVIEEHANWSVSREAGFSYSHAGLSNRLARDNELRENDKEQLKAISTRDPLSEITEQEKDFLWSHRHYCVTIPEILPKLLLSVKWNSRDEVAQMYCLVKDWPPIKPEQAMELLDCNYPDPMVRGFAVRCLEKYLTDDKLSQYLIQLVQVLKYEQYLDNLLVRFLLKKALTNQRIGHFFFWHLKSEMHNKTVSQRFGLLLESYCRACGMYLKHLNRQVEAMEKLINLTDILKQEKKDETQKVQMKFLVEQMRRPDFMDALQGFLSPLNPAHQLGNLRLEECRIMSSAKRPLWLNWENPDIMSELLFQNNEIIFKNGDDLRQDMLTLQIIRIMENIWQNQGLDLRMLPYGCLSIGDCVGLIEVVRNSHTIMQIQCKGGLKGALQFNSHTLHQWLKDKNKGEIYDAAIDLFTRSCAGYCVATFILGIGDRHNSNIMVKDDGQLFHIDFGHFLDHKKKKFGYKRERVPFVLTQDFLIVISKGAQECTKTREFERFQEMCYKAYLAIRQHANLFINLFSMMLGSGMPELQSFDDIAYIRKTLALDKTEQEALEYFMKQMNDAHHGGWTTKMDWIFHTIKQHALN
To be noted: PIK3CA; 1 uM. The method, boiled down: as §1

Our source for the remaining binding values is patent US11208412B2 (DAEGU-GYEONGBUK MEDICAL INNOVATION FOUNDATION, priority 2017, dated 2021).

Consider `CNc1nc(Nc2ccc(C(=O)N3CCOCC3)cc2OC)nc2[nH]cc(C#N)c12` [Example 1, 2-((2-methoxy-4-(morpholine-4-carbonyl)phenyl)amino)-4-(methylamino)-7H-pyrrolo[2,3-d]pyrimidine-5-carbonitrile], for which the remaining binding at 1 µM is 91% in experiment [1]; 96% in experiment [2]; 84% in experiment [3]; 94% in experiment [4]; 87% in experiment [5].

Regarding `CC1(Nc2nc(Nc3cnn([C@H]4CCN(C5COC5)C[C@@H]4F)c3Cl)nc3[nH]cc(C#N)c23)CC1` [Example 52, 2-((5-chloro-1-((3S,4S)-3-fluoro-1-(oxetane-3-yl)piperidine-4-yl)-1H-pyrazole-4-yl)amino)((1-methylcyclopropyl)amino)-7H-pyrrolo[2,3-d]pyrimidine-5-carbonitrile], the remaining binding at 1 µM was found to be 100% in experiment [1]; 0% in experiment [2]; 100% in experiment [3]; 14% in experiment [4]; 60% in experiment [5].

On to `CCNc1nc(Nc2ccc(C(=O)N3CCC(N4CCOCC4)CC3)cc2OC)nc2[nH]cc(C(F)(F)F)c12` [Example 104, (4-((4-(ethylamino)-5-(trifluoromethyl)-7H-pyrrolo[2,3-d]pyrimidine-2-yl)amino)-3-methoxyphenyl)(4-morpholinopiperidine-1-yl)methanone], for which the remaining binding at 1 µM in experiment [1] is 98%; in experiment [2], 93%; in experiment [3] it was 78%; in experiment [4], 100%; in experiment [5], 99%.
